Measured values reported in US7348427B2, “Antipathogenic benzamide compounds” (Genesoft Pharmaceuticals, Inc., priority 2001, dated 2008).

Columns and labels:
[1] = system: Bacillus cereus (ATCC 11778); assay: MIC, NCCLS broth microdilution assay; format: cell-based; settings: A = B. cereus ATCC 11778
In short: (§1)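 The antifungal assay used the Manual of Clinical Microbiology (1995) procedure. […] minimal inhibitory concentrations came from NCCLS broth microdilution per M7-A4, M11-A4 and M27-T.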

[2] = system: Staphylococcus aureus (ATCC 13709, a methicillin sensitive strain (MSSA)); assay: MIC, NCCLS broth microdilution assay; format: cell-based; settings: E = S. aureus ATCC 13709
In short: as §1

[3] = system: Staphylococcus aureus (ATCC 27660, a methicillin resistant strain (MRSA)); assay: MIC, NCCLS broth microdilution assay; format: cell-based; settings: F = S. aureus ATCC 27660
In short: as §1

[4] = system: Candida albicans (ATCC 38247); assay: Antifungal MIC assay; format: cell-based; settings: B = C. albicans ATCC 38247
In short: as §1

[5] = system: methicillin resistant Staphylococcus aureus ATCC 33591; assay: Murine neutropenic thigh model; format: in vivo; settings: neutropenic female CF1 mice, 6 hr after treatment
Experimental: A S. aureus ATCC 33591 culture was grown to log phase overnight and diluted in phosphate buffered saline (pH 7.2) to an optical density of about 0.1 at 600 nm, giving an approximate concentration of 10^8 cfu/mL. The suspension was diluted 1:100 in phosphate buffered saline (pH 7.2) for a final concentration of 10^6 cfu/mL.
Outbred female CF1 mice (approx. 20 gram body weight) were rendered neutropenic by treatment with cyclophosphamide (200 mg/kg body weight, intraperitoneal injection) at 2 and 4 days prior to inoculation. Groups of 5 mice were inoculated with 0.05 mL of the bacteria (approx. 10^6 cfu/mL) into the anterior thigh. Each group was treated intravenously two hours post infection with vehicle (phosphate buffered saline) or test compound. The mice were sacrificed at either 6 or 24 hrs after treatment and thighs were collected aseptically. Each thigh was weighed, placed into sterile saline, and homogenized. The tissue homogenates were diluted appropriately for plating on agar plates. Colony counts were recorded (cfu/gram) and compared to control groups.
In vivo efficacy was shown by a decrease in colony count (log cfu/gram of tissue) in the compound-treated animals when compared against the colony count in animals given only the vehicle.

E. faecalis ATCC 29212 = assay: MIC, NCCLS broth microdilution assay; format: cell-based, Enterococcus faecalis; settings: C = E. faecalis ATCC 29212
In short: (§2)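 MICs were determined by NCCLS broth microdilution following documents M7-A4 and M11-A4 (1997).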

S. pneumoniae ATCC 49619 = assay: MIC, NCCLS broth microdilution assay; format: cell-based, Streptococcus pneumoniae; settings: H = S. pneumoniae ATCC 49619
In short: as §2

[6] = system: Enterococcus faecium (ATCC 51559, a vancomycin resistant strain (VRE)); assay: MIC, NCCLS broth microdilution assay; format: cell-based; settings: D = E. faecium ATCC 51559
In short: as §1

[7] = system: Staphylococcus epidermidis (ATCC 12228); assay: MIC, NCCLS broth microdilution assay; format: cell-based; settings: G = S. epidermidis ATCC 12228
In short: as §1

[8] = system: Streptococcus pneumoniae (ATCC 51422, a penicillin resistant strain (PRSP)); assay: MIC, NCCLS broth microdilution assay; format: cell-based; settings: I = S. pneumoniae ATCC 51422
In short: as §1

[9] = 50 mg/kg intravenously two hours post infection

Row | Compound | Minimum Inhibitory Concentration (MIC) [1] | Minimum Inhibitory Concentration (MIC) [2] | Minimum Inhibitory Concentration (MIC) [3] | Minimum Inhibitory Concentration (MIC) [4] | Colony Count (log cfu/gram) Compound ([5]; 25 mg/kg intravenously two hours post infection) | Colony Count (log cfu/gram) Compound [5, 9] | Minimum Inhibitory Concentration (MIC) (E. faecalis ATCC 29212) | Minimum Inhibitory Concentration (MIC) (S. pneumoniae ATCC 49619) | Minimum Inhibitory Concentration (MIC) [6] | Minimum Inhibitory Concentration (MIC) [7] | Minimum Inhibitory Concentration (MIC) [8]
1 | Cn1cc(NC(=O)c2cc(NC(=O)c3cc(NC(=O)c4ccc(Cl)cc4F)c[nH]3)cn2C)cc1C(=O)NCCN1CCC(F)CC1 [Compound A-26] | +++ (+++ = MIC ≦ 4) | +++ (+++ = MIC ≦ 4) | +++ (+++ = MIC ≦ 4) | ++ (++ = 4 < MIC < 12) | 6.37 log cfu/gram | 5.34 log cfu/gram | +++ (+++ = MIC ≦ 4) | +++ (+++ = MIC ≦ 4) |  |  | 
2 | CN(C)CCCNC(=O)c1cc(NC(=O)c2cc(NC(=O)c3cc(NC(=O)c4ccc(Cl)cc4F)cn3C)cn2C)cn1C [Compound B-50] | +++ (+++ = MIC ≦ 4) | +++ (+++ = MIC ≦ 4) | +++ (+++ = MIC ≦ 4) | +++ (+++ = MIC ≦ 4) |  | 6.58 log cfu/gram | +++ (+++ = MIC ≦ 4) | +++ (+++ = MIC ≦ 4) |  |  | 
3 | Cn1cc(NC(=O)c2cc(NC(=O)c3cc(NC(=O)c4ccc(C#N)cc4)cn3C)cn2C)cc1C(=O)NCCN1CCOCC1 [Compound B-67] | +++ (+++ = MIC ≦ 4) |  |  | >32 µg/mL |  | 7.73 log cfu/gram | +++ (+++ = MIC ≦ 4) | +++ (+++ = MIC ≦ 4) |  |  | 
4 | Cn1cc(NC(=O)c2cc(NC(=O)c3cc(NC(=O)c4ccc(C#N)cc4)cn3C)cn2C)cc1C(=O)NCCN1CCSCC1 [Compound B-68] | +++ (+++ = MIC ≦ 4) | +++ (+++ = MIC ≦ 4) | +++ (+++ = MIC ≦ 4) | >32 µg/mL |  |  | +++ (+++ = MIC ≦ 4) | +++ (+++ = MIC ≦ 4) | +++ (+++ = MIC ≦ 4) | +++ (+++ = MIC ≦ 4) | +++ (+++ = MIC ≦ 4)
5 | Cn1cc(NC(=O)c2cc(NC(=O)c3ccc(Cl)cc3F)c[nH]2)cc1C(=O)Nc1cc(C(=O)NCCN2CCCCC2)n(CCCO)c1 [Compound C-9] | +++ (+++ = MIC ≦ 4) | +++ (+++ = MIC ≦ 4) | +++ (+++ = MIC ≦ 4) | +++ (+++ = MIC ≦ 4) |  |  | +++ (+++ = MIC ≦ 4) | +++ (+++ = MIC ≦ 4) | +++ (+++ = MIC ≦ 4) | +++ (+++ = MIC ≦ 4) | +++ (+++ = MIC ≦ 4)
6 | CN(C)CCCn1cc(NC(=O)c2cc(NC(=O)c3cc(NC(=O)c4ccc(F)cc4F)cn3C)cn2C)cc1C(=O)NCCN1CCCCC1 [Compound D-2] | +++ (+++ = MIC ≦ 4) | + (+ = 12 ≦ MIC ≦ 32) | +++ (+++ = MIC ≦ 4) | + (+ = 12 ≦ MIC ≦ 32) |  |  | +++ (+++ = MIC ≦ 4) | +++ (+++ = MIC ≦ 4) | +++ (+++ = MIC ≦ 4) | +++ (+++ = MIC ≦ 4) | +++ (+++ = MIC ≦ 4)
7 | Cc1cc(NC(=O)c2cc(NC(=O)c3cc(NC(=O)c4ccc(Cl)cc4F)cn3C)cn2CCN2CCOCC2)sn1 [Compound D-8] | +++ (+++ = MIC ≦ 4) | +++ (+++ = MIC ≦ 4) | +++ (+++ = MIC ≦ 4) | >32 µg/mL |  |  | +++ (+++ = MIC ≦ 4) | +++ (+++ = MIC ≦ 4) | +++ (+++ = MIC ≦ 4) | +++ (+++ = MIC ≦ 4) | +++ (+++ = MIC ≦ 4)
8 | Cc1cc(NC(=O)c2cc(NC(=O)c3cc(NC(=O)c4ccc(Cl)cc4F)c[nH]3)cn2CCN2CCOCC2)sn1 [Compound D-9] | +++ (+++ = MIC ≦ 4) | +++ (+++ = MIC ≦ 4) | +++ (+++ = MIC ≦ 4) | >32 µg/mL |  |  | +++ (+++ = MIC ≦ 4) | +++ (+++ = MIC ≦ 4) | +++ (+++ = MIC ≦ 4) | +++ (+++ = MIC ≦ 4) | +++ (+++ = MIC ≦ 4)
9 | Cc1cc(NC(=O)c2cc(NC(=O)c3cc(NC(=O)c4ccc(Cl)cc4F)c[nH]3)cn2CCN2CCCC2)sn1 [Compound D-10] | +++ (+++ = MIC ≦ 4) | +++ (+++ = MIC ≦ 4) | + (+ = 12 ≦ MIC ≦ 32) | ++ (++ = 4 < MIC < 12) |  |  | +++ (+++ = MIC ≦ 4) | +++ (+++ = MIC ≦ 4) | +++ (+++ = MIC ≦ 4) | +++ (+++ = MIC ≦ 4) | +++ (+++ = MIC ≦ 4)
10 | Cc1cc(NC(=O)c2cc(NC(=O)c3cc(NC(=O)c4ccc(Cl)cc4F)cn3C)cn2CCCN(C)C)sn1 [Compound D-12] | +++ (+++ = MIC ≦ 4) | +++ (+++ = MIC ≦ 4) | +++ (+++ = MIC ≦ 4) | +++ (+++ = MIC ≦ 4) |  |  | +++ (+++ = MIC ≦ 4) | +++ (+++ = MIC ≦ 4) | ++ (++ = 4 < MIC < 12) | +++ (+++ = MIC ≦ 4) | +++ (+++ = MIC ≦ 4)
11 | Cn1cc(NC(=O)c2cc(NC(=O)c3ccc(Cl)cc3F)c[nH]2)cc1C(=O)Nc1cc(C(=O)NCCN2CCCCC2)n(CCN2CCOCC2)c1 [Compound D-13] | +++ (+++ = MIC ≦ 4) | +++ (+++ = MIC ≦ 4) | +++ (+++ = MIC ≦ 4) | + (+ = 12 ≦ MIC ≦ 32) |  |  | +++ (+++ = MIC ≦ 4) | +++ (+++ = MIC ≦ 4) | ++ (++ = 4 < MIC < 12) | +++ (+++ = MIC ≦ 4) | +++ (+++ = MIC ≦ 4)
